Data taken from publication PMC6328587 (Nature Communications, 2019).

Target: T1, FLAG-p38δ (Homo sapiens, UniProt O15264)
T1 construct: expressed in transfected cells; host or cells: HeLa
T1 sequence (O15264 1-365): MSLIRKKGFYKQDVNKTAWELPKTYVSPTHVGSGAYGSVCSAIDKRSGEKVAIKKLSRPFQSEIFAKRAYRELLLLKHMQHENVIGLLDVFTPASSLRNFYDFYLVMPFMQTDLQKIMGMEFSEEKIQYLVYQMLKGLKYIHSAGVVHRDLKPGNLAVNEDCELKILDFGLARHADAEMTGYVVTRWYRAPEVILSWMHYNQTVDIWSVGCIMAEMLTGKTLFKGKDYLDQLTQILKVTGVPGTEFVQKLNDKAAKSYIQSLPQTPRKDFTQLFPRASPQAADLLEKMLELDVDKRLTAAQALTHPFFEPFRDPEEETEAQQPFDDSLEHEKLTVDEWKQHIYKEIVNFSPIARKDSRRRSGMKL
Assay: TUBE1 immunoprecipitation of poly-Ub p38δ in HeLa cells
Assay type: cell-based
Conditions: 1 µM PROTAC, 3 hours
Method: TUBE1 immunoprecipitation experiments were carried out exactly as described above, except for the fact that 1 mg of normalized HeLa lysate was loaded onto 20 µL TUBE1 agarose (LifeSensors) resin per sample.
WCL IP : TU B E 1 DMS SJF SJF
Supplementary Figure 7. SJFδ in d u ces p o lyu b iq u itin atio n o f p 38δ(related to F ig u re 4).
HeLa cells were co-transfected with HA-Ub and FLAG p38δ and treated with vehicle (DM SO ), 1 µM SJFα, or 1 µM SJFδ for 3 hours. Lysates were im m unoprecipitated with tandem ubiquitin binding entity (TUBE1) agarose beads and assessed by western blots detecting FLAG (p38δ).
TUBE1 binds tetra ubiquitin chains with high affinity, thereby enriching for polyubiquitinated proteins. In this assay, HA (Ub) serves as an im m unoprecipitation control for poly-Ub TUBE1 […]

TUBE1-reactivity (poly-Ub p38δ): increased TUBE1-reactivity
SMILES: COc1cc2c(Oc3ccc(NC(=O)C4(C(=O)Nc5ccc(F)cc5)CC4)cc3F)ccnc2cc1OCCOCCOCCOc1cc(-c2scnc2C)ccc1CNC(=O)[C@@H]1C[C@@H](O)CN1C(=O)[C@H](C(C)C)N1Cc2ccccc2C1=O [SJFδ]
